We go through 62 molecules from patent US10519143B2, “Substituted-indole-compounds as estrogen receptor down-regulators” (LUOXIN PHARMACEUTICAL (SHANGHAI) CO., LTD, priority 2016, dated 2019).

For the experiment, the system named is MCF-7 cells. Briefly: MCF-7 cell proliferation inhibition assay. The format is cell-based. The conditions noted are these: Homo sapiens, MCF7, 144 h. As to the method:
Experimental Reagent: RPMI 1640 medium, fetal bovine serum, Promega CellTiter-Glo reagent. The cell line MCF-7 was purchased from The European Collection of Authenticated Cell Cultures (ECACC). Envision Multilabel Reader (PerkinElmer). Experimental Method: […] The cell plate was placed in a carbon dioxide incubator overnight. […] The cell plate was incubated in a carbon dioxide incubator for 6 days. Promega CellTiter-Glo reagent was added to the cell plate at 25 μL per well, cells were incubated for 10 minutes at room temperature to stabilize the luminescence signal, which was measured using PerkinElmer Envision Multilabel Reader. Data Analysis: […] (Model 205 in XLFIT5, iDBS)

The mark [1] stands for this setting: MCF-7 cells, 6 days incubation, CellTiter-Glo, read-out: anti-proliferation in MCF-7 cells.
Setting [2] is: read-out: anti-proliferation in MCF-7 cells (nM).

Where two headings read alike, the source gives them in different places.

Consider `CC/C(=C(/c1ccc(/C=C/C(=O)O)cc1)c1cc2ccccc2[nH]1)c1cccc(OC(F)(F)F)c1` [Compound I-2], for which the IC50 under setting [1] amounted to 282 nM.
Turning to `CC/C(=C(/c1ccc(/C=C/C(=O)O)cc1)c1cc2ccccc2[nH]1)c1ccccc1OC(F)(F)F` [Compound I-3], the IC50 under setting [1] was determined as 206 nM.
Still for that read-out and setting: to `CC/C(=C(/c1ccc(/C=C/C(=O)O)cc1)c1cc2ccccc2[nH]1)c1cccc(C(F)(F)F)c1` [Compound I-4] belongs 325 nM.
The same measure, in the same setting: to `CC/C(=C(/c1ccc(/C=C/C(=O)O)cc1)c1cc2ccccc2[nH]1)c1ccccc1C(F)(F)F` [Compound I-5] belongs 8.04 nM; to `CC/C(=C(/c1ccc(/C=C/C(=O)O)cc1)c1cc2ccccc2[nH]1)c1cccs1` [Compound I-6], 321 nM; to `CC/C(=C(/c1ccc(/C=C/C(=O)O)cc1)c1[nH]c2ccccc2c1Br)c1ccc(F)cc1Cl` [Compound I-7], 9.52 nM.
For `CC/C(=C(/c1ccc(/C=C/C(=O)O)cc1)c1[nH]c2ccccc2c1Cl)c1ccc(F)cc1Cl` [Compound I-8], the IC50 under setting [1] was found to be 5.59 nM.
In the case of `CC/C(=C(/c1ccc(/C=C/C(=O)O)cc1)c1cc2ccc(F)cc2[nH]1)c1ccc(F)cc1Cl` [Compound I-9], the IC50 under setting [1] is 167 nM.
Take `CC/C(=C(/c1ccc(/C=C/C(=O)O)cc1)c1[nH]c2ccccc2c1Cl)c1ccccc1C(F)(F)F` [Compound I-10]: under setting [1], the IC50 was determined as 13 nM.
In the case of `CC/C(=C(/c1ccc(/C=C/C(=O)O)cc1)c1[nH]c2ccccc2c1Br)c1ccccc1C(F)(F)F` [Compound I-11], the IC50 under setting [1] stood at 8.53 nM.
With `CC/C(=C(/c1ccc(/C=C/C(=O)O)cc1)c1cc2ccccc2[nH]1)c1ccc(F)cc1C(F)(F)F` [Compound I-12], the IC50 under setting [1] was found to be 13 nM.
Regarding `CC/C(=C(/c1ccc(/C=C/C(=O)O)cc1)c1cc2ccccc2[nH]1)c1ccc(C(F)(F)F)cc1Cl` [Compound I-13], the IC50 under setting [1] was found to be 27 nM.
`CC/C(=C(/c1ccc(/C=C/C(=O)O)cc1)c1cc2ccccc2[nH]1)c1ccc(Cl)cc1C(F)(F)F` [Compound I-14]: the IC50 under setting [1] is 4.11 nM.
For `CC/C(=C(/c1ccc(/C=C/C(=O)O)cc1)c1[nH]c2ccccc2c1Cl)c1ccsc1C#N` [Compound I-15], the IC50 under setting [1] turned out to be 7.56 nM.
On to `CC/C(=C(/c1ccc(/C=C/C(=O)O)cc1)c1cc2ccccc2[nH]1)c1cc(Cl)sc1Cl` [Compound I-17], for which, under setting [2], the IC50 turned out to be 8.29 nM.
The same measure, in the same setting: the result for `CC/C(=C(/c1ccc(/C=C/C(=O)O)cc1)c1cc2ccccc2[nH]1)c1ccsc1C#N` [Compound I-18] reads 22 nM.
As for `CC/C(=C(/c1ccc(/C=C/C(=O)O)cc1)c1[nH]c2ccccc2c1C)c1ccc(F)cc1Cl` [Compound I-19], under setting [1], the IC50 came out at 4.78 nM.
As to `CC/C(=C(/c1ccc(/C=C/C(=O)O)cc1)c1cc2ccccc2[nH]1)c1ccc(Cl)cc1C#N` [Compound I-21], the IC50 under setting [1] was determined as 14 nM.
With `CC/C(=C(/c1ccc(/C=C/C(=O)O)cc1)c1[nH]c2ccccc2c1Cl)c1ccc(Cl)cc1C#N` [Compound I-22], under setting [1], the IC50 worked out at 0.86 nM.
On to `CC/C(=C(/c1ccc(/C=C/C(=O)O)cc1)c1[nH]c2ccccc2c1C#N)c1ccc(F)cc1Cl` [Compound I-23], for which, under setting [1], the IC50 is 4.84 nM.
On to `CC/C(=C(/c1ccc(/C=C/C(=O)O)cc1)c1[nH]c2ccccc2c1Cl)c1ccc(Cl)cc1` [Compound I-24], for which the IC50 under setting [1] turned out to be 21.5 nM.
With `CC(C)C/C(=C(/c1ccc(/C=C/C(=O)O)cc1)c1cc2ccccc2[nH]1)c1ccc(F)cc1Cl` [Compound I-27], the IC50 under setting [1] is 8.36 nM.
Still for that read-out and setting: the result for `CC/C(=C(/c1ccc(/C=C/C(=O)O)cc1)c1[nH]c2ccccc2c1Cl)c1ccc(Cl)c(C)c1` [Compound I-28] reads 69 nM.
Take `CC/C(=C(/c1ccc(/C=C/C(=O)O)cc1)c1cc2ccccc2[nH]1)c1c(C)cccc1Cl` [Compound I-29]: under setting [2], the IC50 was determined as 30 nM.
For `CC/C(=C(/c1ccc(/C=C/C(=O)O)cc1)c1cc2ccccc2[nH]1)c1ccc2c(c1)OCCO2` [Compound I-30], the IC50 under setting [1] is 48 nM.
Turning to `CC/C(=C(/c1ccc(/C=C/C(=O)O)cc1)c1[nH]c2ccccc2c1Cl)c1ccc2c(c1)OCCO2` [Compound I-31], under setting [1], the IC50 is 3.66 nM.
On the same count and under the same terms, to `CC/C(=C(/c1ccc(/C=C/C(=O)O)cc1)c1cc2ccccc2[nH]1)c1ccc(OC)cc1` [Compound I-32] belongs 61 nM.
Turning to `CC/C(=C(/c1ccc(/C=C/C(=O)O)cc1)c1[nH]c2ccccc2c1Cl)c1ccc(OC)cc1` [Compound I-33], under setting [1], the IC50 worked out at 2.86 nM.
As for `CC/C(=C(/c1ccc(/C=C/C(=O)O)cc1)c1cc2ccccc2[nH]1)c1ccc(C#N)cc1Cl` [Compound I-34], under setting [1], the IC50 was found to be 49 nM.
For the molecule `CC/C(=C(/c1ccc(/C=C/C(=O)O)cc1)c1[nH]c2ccccc2c1Cl)c1cc(Cl)sc1Cl` [Compound I-35], the IC50 under setting [1] turned out to be 20 nM.
As to `CC/C(=C(/c1ccc(/C=C/C(=O)O)cc1)c1[nH]c2ccccc2c1C#N)c1cc(Cl)sc1Cl` [Compound I-36], the IC50 under setting [1] worked out at 6.84 nM.
Regarding `CC/C(=C(/c1ccc(/C=C/C(=O)O)cc1)c1cc2ccccc2[nH]1)c1ccc(Cl)cc1Cl` [Compound I-37], the IC50 under setting [1] was determined as 11 nM.
On to `CC/C(=C(/c1ccc(/C=C/C(=O)O)cc1)c1[nH]c2ccccc2c1F)c1ccc(F)cc1Cl` [Compound I-40], for which, under setting [1], the IC50 was found to be 2.31 nM.
Consider `CC/C(=C(/c1ccc(/C=C/C(=O)O)cc1)c1cc2ccccc2[nH]1)c1ccc(OC)cc1Cl` [Compound I-41], for which the IC50 under setting [1] worked out at 3.91 nM.
For the molecule `CC/C(=C(/c1ccc(/C=C/C(=O)O)cc1)c1[nH]c2ccccc2c1C#N)c1ccc(OC)cc1Cl` [Compound I-42], the IC50 under setting [1] is 0.77 nM.
On to `CC/C(=C(/c1ccc(/C=C/C(=O)O)cc1)c1[nH]c2ccccc2c1Cl)c1ccc(OC)cc1C#N` [Compound I-43], for which, under setting [1], the IC50 was 1.56 nM.
`CC/C(=C(/c1ccc(/C=C/C(=O)O)cc1)c1[nH]c2ccccc2c1Cl)c1ccc(Cl)cc1C(F)(F)F` [Compound I-44]: the IC50 under setting [1] is 5.84 nM.
For `CC/C(=C(/c1ccc(/C=C/C(=O)O)cc1)c1cc2ccccc2[nH]1)c1ccc(F)cc1F` [Compound I-45], the IC50 under setting [2] turned out to be 103 nM.
`CC/C(=C(/c1ccc(/C=C/C(=O)O)cc1)c1cc2cnccc2[nH]1)c1ccc(F)cc1Cl` [Compound I-46]: the IC50 under setting [1] was 393 nM.
As to `CC/C(=C(/c1ccc(/C=C/C(N)=O)cc1)c1cc2ccccc2[nH]1)c1ccc(Cl)cc1C(F)(F)F` [Compound I-47], the IC50 under setting [1] was found to be 4.27 nM.
Take `CC/C(=C(/c1ccc(/C=C/C(=O)NS(C)(=O)=O)cc1)c1cc2ccccc2[nH]1)c1ccc(Cl)cc1C(F)(F)F` [Compound I-48]: the IC50 under setting [1] is 4.88 nM.
Regarding `CC/C(=C(/c1ccc(/C=C/C(=O)O)cc1)c1cc2ccccc2[nH]1)c1ccccc1C#N` [Compound I-49], the IC50 under setting [1] was found to be 42 nM.
Turning to `CC/C(=C(/c1ccc(/C=C/C(=O)O)cc1)c1cc2ccccc2[nH]1)c1ccccc1C` [Compound I-50], the IC50 under setting [1] was determined as 33 nM.
For `CC/C(=C(/c1ccc(/C=C/C(=O)O)cc1)c1cc2ccccc2[nH]1)c1ccccc1Cl` [Compound I-51], the IC50 under setting [1] was found to be 9.24 nM.
For the molecule `CC/C(=C(/c1ccc(/C=C/C(=O)O)cc1)c1cc2ccccc2[nH]1)c1cccc(F)c1C#N` [Compound I-52], the IC50 under setting [1] was determined as 40 nM.
As for `CC/C(=C(/c1ccc(/C=C/C(=O)O)cc1)c1[nH]c2ccccc2c1C#N)c1ccc(Cl)cc1Cl` [Compound I-53], the IC50 under setting [1] came out at 4.35 nM.
On the same count and under the same terms, the result for `CC/C(=C(/c1ccc(/C=C/C(=O)O)cc1)c1[nH]c2ccccc2c1C)c1cccc(C)c1` [Compound I-54] reads 23 nM.
For `CC/C(=C(/c1ccc(/C=C/C(=O)O)cc1)c1[nH]c2ccccc2c1Cl)c1ccc(Cl)nc1C#N` [Compound I-55], under setting [1], the IC50 was found to be 2.42 nM.
In the case of `CC/C(=C(/c1ccc(/C=C/C(=O)O)cc1)c1[nH]c2ccccc2c1Cl)c1csc(C)c1` [Compound I-56], the IC50 under setting [1] stood at 35 nM.
Regarding `CC/C(=C(\c1cc2ccccc2[nH]1)c1c(F)cc(/C=C/C(=O)O)cc1F)c1ccc(F)cc1Cl` [Compound I-57], the IC50 under setting [2] worked out at 32 nM.
For the molecule `CC/C(=C(/c1ccc(OCCN2CC(CF)C2)cc1)c1cc2ccccc2[nH]1)c1ccc(F)cc1Cl` [II-1], the IC50 under setting [2] worked out at 4.57 nM.
`CC/C(=C(/c1ccc(OCCN2CC(CF)C2)cc1)c1cc2ccc(F)cc2[nH]1)c1ccc(F)cc1Cl` [II-2]: under setting [1], the IC50 stood at 7.75 nM.
As for `CC/C(=C(/c1ccc(OCCN2CC(CF)C2)cc1)c1cc2cc(F)ccc2[nH]1)c1ccc(F)cc1Cl` [II-3], the IC50 under setting [1] stood at 6.77 nM.
As for `CC/C(=C(\c1cc2ccccc2[nH]1)c1c(F)cc(OCCN2CC(CF)C2)cc1F)c1ccc(F)cc1Cl` [II-4], the IC50 under setting [1] was determined as 6.86 nM.
Consider `CC/C(=C(/c1ccc(OCCN2CC(CF)C2)cc1)c1[nH]c2ccccc2c1Cl)c1ccc(F)cc1Cl` [II-5], for which the IC50 under setting [1] stood at 7.23 nM.
As for `CC/C(=C(/c1ccc(OCCN2CC(CF)C2)cc1)c1cc2ccccc2[nH]1)c1ccccc1Cl` [II-6], the IC50 under setting [1] came to 2.46 nM.
On the same count and under the same terms, the result for `CC/C(=C(/c1ccc(OCCN2CC(CF)C2)cc1)c1cc2ccccc2[nH]1)c1ccccc1C#N` [II-7] reads 2.61 nM; that for `CC/C(=C(/c1ccc(OCCN2CC(CC#N)C2)cc1)c1[nH]c2ccccc2c1Cl)c1ccc(F)cc1Cl` [II-8], 5 nM; that for `CC/C(=C(/c1ccc(OCCN2CC(CC#N)C2)cc1)c1cc2ccccc2[nH]1)c1ccc(Cl)cc1C(F)(F)F` [II-9], 51 nM.
Consider `CC/C(=C(/c1ccc(OCCN2CC(CC#N)C2)cc1)c1cc2ccccc2[nH]1)c1ccccc1Cl` [II-10], for which the IC50 under setting [1] was 3.92 nM.
Same read-out and setting: to `CC/C(=C(/c1ccc(OCCN2CC(CC#N)C2)cc1)c1cc2ccccc2[nH]1)c1ccccc1C#N` [II-11] belongs 7.43 nM; to `CC/C(=C(/c1ccc(OCCN2CC(CC#N)C2)cc1)c1[nH]c2ccccc2c1Cl)c1ccc(Cl)cc1C#N` [II-12], 1.56 nM.
